Source: ChEMBL document CHEMBL3351688, “Studies on the anticonvulsant activity of 4-alkyl-1,2,4-triazole-3-thiones and their effect on GABAergic system” (Eur J Med Chem, 2014)

Legend:
Mus musculus [1] = assay: Anticonvulsant activity in Swiss mouse assessed as protection against seizures at 300 mg/kg, ip administered 15 mins before test by maximal electroshock seizure test; format: functional; conditions: route intraperitoneal
Mus musculus [2] = assay: Anticonvulsant activity in Swiss mouse assessed as protection against seizures at 300 mg/kg, ip administered 30 mins before test by maximal electroshock seizure test; format: functional; conditions: route intraperitoneal
Mus musculus [3] = assay: Anticonvulsant activity in Swiss mouse assessed as protection against seizures at 300 mg/kg, ip administered 60 mins before test by maximal electroshock seizure test; format: functional; conditions: route intraperitoneal
Mus musculus [4] = assay: Anticonvulsant activity in Swiss mouse assessed as protection against seizures at 300 mg/kg, ip administered 120 mins before test by maximal electroshock seizure test; format: functional; conditions: route intraperitoneal
[5] = target: GABA-A receptor; anion channel (Homo sapiens) (UniProt P14867+P47870+P18507+P28472+P48169+Q99928+Q9UN88+P34903+O00591+O14764+Q8N1C3+P18505+P78334+P47869+P31644+Q16445); assay: Displacement of [3H]muscimol form GABAA receptor in rat cerebral cortex assessed as specific radio-ligand binding level at 1 uM incubated for 10 mins by liquid scintillation counting method; format: tissue-based; conditions: target entry is the homologue from another species
Rattus norvegicus = species on record: Rattus norvegicus; assay: Displacement of [3H]flunitrazepam form benzodiazepine receptor in rat cerebral cortex assessed as specific radio-ligand binding level at 1 uM incubated for 20 mins by liquid scintillation counting method; format: tissue-based
Mus musculus [6] = assay: Anticonvulsant activity in Swiss mouse assessed as protection against seizures administered intraperitoneally 15 mins before test by maximal electroshock seizure test; format: functional; conditions: ip
Mus musculus [7] = assay: Anticonvulsant activity in Swiss mouse assessed as protection against seizures administered intraperitoneally 30 mins before test by maximal electroshock seizure test; format: functional; conditions: ip
Mus musculus [8] = assay: Anticonvulsant activity in Swiss mouse assessed as protection against seizures administered intraperitoneally 60 mins before test by maximal electroshock seizure test; format: functional; conditions: ip
Mus musculus [9] = assay: Anticonvulsant activity in Swiss mouse assessed as protection against seizures administered intraperitoneally 120 mins before test by maximal electroshock seizure test; format: functional; conditions: ip
[10] = Toxicity in Swiss mouse assessed as effect on motor performance administered intraperitoneally 15 mins before test by Chimney test; format: organism-based; conditions: in vivo, ip
[11] = Toxicity in Swiss mouse assessed as effect on motor performance administered intraperitoneally 30 mins before test by Chimney test; format: organism-based; conditions: in vivo, ip
[12] = Toxicity in Swiss mouse assessed as effect on motor performance administered intraperitoneally 60 mins before test by Chimney test; format: organism-based; conditions: in vivo, ip
[13] = Toxicity in Swiss mouse assessed as effect on motor performance administered intraperitoneally 120 mins before test by Chimney test; format: organism-based; conditions: in vivo, ip
[14] = Protective index, ratio of TD50 in ip Swiss mouse dosed intraperitoneally 15 mins before test by Chimney test to anticonvulsant ED50 in Swiss mouse dosed intraperitoneally 15 mins before test by MES test; format: ADME, organism-based; conditions: in vivo, read-out: Ratio TD50/ED50
[15] = Protective index, ratio of TD50 in ip Swiss mouse dosed intraperitoneally 30 mins before test by Chimney test to anticonvulsant ED50 in Swiss mouse dosed intraperitoneally 30 mins before test by MES test; format: ADME, organism-based; conditions: in vivo, read-out: Ratio TD50/ED50
[16] = Protective index, ratio of TD50 in ip Swiss mouse dosed intraperitoneally 60 mins before test by Chimney test to anticonvulsant ED50 in Swiss mouse dosed intraperitoneally 60 mins before test by MES test; format: ADME, organism-based; conditions: in vivo, read-out: Ratio TD50/ED50
[17] = Protective index, ratio of TD50 in ip Swiss mouse dosed intraperitoneally 120 mins before test by Chimney test to anticonvulsant ED50 in Swiss mouse dosed intraperitoneally 120 mins before test by MES test; format: ADME, organism-based; conditions: in vivo, read-out: Ratio TD50/ED50

Structure (SMILES)	Activity (Mus musculus [1]) [%]	Activity (Mus musculus [2]) [%]	Activity (Mus musculus [3]) [%]	Activity (Mus musculus [4]) [%]	Activity [5] [%]	Activity (Rattus norvegicus) [%]	ED50 (Mus musculus [6]) [mg/kg]	ED50 (Mus musculus [7]) [mg/kg]	ED50 (Mus musculus [8]) [mg/kg]	ED50 (Mus musculus [9]) [mg/kg]	TD50 at 0.25 h [10] [mg/kg]	TD50 at 0.5 h [11] [mg/kg]	TD50 at 1 h [12] [mg/kg]	TD50 at 2 h [13] [mg/kg]	selectivity ratio at 0.25 h [14]	selectivity ratio at 0.5 h [15]	selectivity ratio at 1 h [16]	selectivity ratio at 2 h [17]
CCCCCCCn1c(-c2cccc(Cl)c2Cl)n[nH]c1=S	25	25	25	12.5	3	8	–	–	–	–	–	–	–	–	–	–	–	–
CN1C(=O)CN=C(c2ccccc2)c2cc(Cl)ccc21	–	–	–	–	–	83	–	–	–	–	–	–	–	–	–	–	–	–
CCn1c(-c2cccc(Cl)c2Cl)n[nH]c1=S	0	0	0	0	19	5	–	–	–	–	–	–	–	–	–	–	–	–
CCCCn1c(-c2cccc(Cl)c2Cl)n[nH]c1=S	12.5	12.5	25	0	16	14	–	–	–	–	–	–	–	–	–	–	–	–
CCCCCCCCCCCCn1c(Cc2cccc(Cl)c2)n[nH]c1=S	0	0	0	0	0	12	–	–	–	–	–	–	–	–	–	–	–	–
CCCCCCCCCn1c(Cc2cccc(Cl)c2)n[nH]c1=S	82.5	100	100	82.5	0	0	193	117	86.8	200	476	493	493	465	2.5	4.2	5.7	2.3
NCCCC(=O)O	–	–	–	–	82	–	–	–	–	–	–	–	–	–	–	–	–	–
CCCCCCCn1c(Cc2cccc(Cl)c2)n[nH]c1=S	100	100	100	100	4	1	49.7	76.3	70.6	89.6	507	640	519	442	10.2	8.4	7.3	4.9
CCCCCn1c(-c2cccc(Cl)c2Cl)n[nH]c1=S	37.5	62.5	62.5	37.5	0	18	329	276	285	348	386	354	348	326	1.2	1.3	1.2	–
CCCCCn1c(Cc2cccc(Cl)c2)n[nH]c1=S	100	100	100	100	10	14	48.5	62.5	68.4	84.2	371	322	329	348	7.6	5.2	4.8	4.1
CCCCCCCCCCn1c(Cc2cccc(Cl)c2)n[nH]c1=S	0	0	0	0	15	12	–	–	–	–	–	–	–	–	–	–	–	–
Cc1ccc(-c2nc3ccc(C)cn3c2CC(=O)N(C)C)cc1	–	–	–	–	–	73	–	–	–	–	–	–	–	–	–	–	–	–
CCCCn1c(Cc2cccc(Cl)c2)n[nH]c1=S	100	100	100	100	13	0	44.5	43.2	61.5	102	326	310	298	325	7.3	7.2	4.8	3.2
CCCCCCn1c(-c2cccc(Cl)c2Cl)n[nH]c1=S	12.5	12.5	25	12.5	2	10	–	–	–	–	–	–	–	–	–	–	–	–
CCCCCCn1c(Cc2cccc(Cl)c2)n[nH]c1=S	100	100	100	100	3	1	72.1	74.5	83.6	97.9	> 1000	> 1000	541	548	> 13.9	> 13.4	6.5	5.6
CCCCCCCCn1c(Cc2cccc(Cl)c2)n[nH]c1=S	100	100	100	82.5	8	0	162	166	153	224	391	486	436	441	2.4	2.9	2.8	2
